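Five compound concentrations were applied to cells in 96-well plates for 48 hours; endpoints were derived by simple linear interpolation of the resulting dose-response curve. GI50: concentration for 50% inhibition of growth.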 Active and inactive are the calls of the source. Rule as the data show it: active = GI50 up to about 1.1 µM and inactive = higher.
Assays:
Assay in all cases: inhibition of tumour cell growth, NCI panel, 48 h
DLD-1 = system: DLD-1
SNB-78 = system: SNB-78
XF498 = system: XF498
LXFL 529 = system: LXFL 529
HOP-18 = system: HOP-18
RXF 631 = system: RXF 631
DMS-273 = system: DMS-273
DMS-114 = system: DMS-114
KM-20L2 = system: KM-20L2

Compound | GI50 (DLD-1) | GI50 (SNB-78) | GI50 (XF498) | GI50 (LXFL 529) | GI50 (HOP-18) | GI50 (RXF 631) | GI50 (DMS-273) | GI50 (DMS-114) | GI50 (KM-20L2)
C=C(CN(C)C)C(=O)c1ccc(OC2OC(COC(C)=O)C(OC(C)=O)C(OC(C)=O)C2OC(C)=O)cc1 (stereo not given) | 0.912 µM (active) | 8.93 µM (inactive) | 1.69 µM (inactive) | 1.52 µM (inactive) | 3.54 µM (inactive) | 14.3 µM (inactive) | 6.85 µM (inactive) | 5.9 µM (inactive) | 17.4 µM (inactive)
CCC(=O)CCC1=Nc2nnc(CCCCc3nnc4n3C(=O)C(CCC(=O)CC)=N4)n2C1=O | > 100 µM (inactive) | – | > 100 µM (inactive) | > 100 µM (inactive) | – | – | > 100 µM (inactive) | > 100 µM (inactive) | > 100 µM (inactive)
Cc1ccccc1C(=O)Oc1ccc(OCc2ccccc2)cc1 | > 100 µM (inactive) | > 100 µM (inactive) | > 100 µM (inactive) | 87.9 µM (inactive) | > 100 µM (inactive) | – | > 100 µM (inactive) | 28.9 µM (inactive) | 75.5 µM (inactive)
C[N+](C)=c1nc(N2CCOCC2)ss1 | – | > 100 µM (inactive) | > 100 µM (inactive) | > 100 µM (inactive) | – | 0.337 µM (active) | > 100 µM (inactive) | – | –
c1ccc(C2SCc3nc4ccccc4n32)cc1 (stereo not given) | 49.5 µM (inactive) | 95.5 µM (inactive) | 20.7 µM (inactive) | – | 4.26 µM (inactive) | – | 33.7 µM (inactive) | 19 µM (inactive) | 47.6 µM (inactive)
COc1ccc(/C=C2\CCC(CN3CCOCC3)C2=O)cc1 (stereo not given) | 2.79 µM (inactive) | 4.86 µM (inactive) | 3.56 µM (inactive) | 1.59 µM (inactive) | 5.78 µM (inactive) | 6.52 µM (inactive) | – | 2.72 µM (inactive) | 6.3 µM (inactive)
O=C1C=C(N2CCCC2)C=C(N2CCCC2)C1 | > 100 µM (inactive) | > 100 µM (inactive) | > 100 µM (inactive) | > 100 µM (inactive) | > 100 µM (inactive) | – | > 100 µM (inactive) | 79.6 µM (inactive) | > 100 µM (inactive)
Cc1cccc(NC2=NC(=O)C(CC(=O)Nc3cccc(C)c3C)S2)c1 (stereo not given) | > 100 µM (inactive) | > 100 µM (inactive) | > 100 µM (inactive) | > 100 µM (inactive) | – | – | – | 63.5 µM (inactive) | > 100 µM (inactive)
Oc1ccccc1/C=N/Cc1ccco1 | > 100 µM (inactive) | > 100 µM (inactive) | > 100 µM (inactive) | > 100 µM (inactive) | > 100 µM (inactive) | > 100 µM (inactive) | – | > 100 µM (inactive) | > 100 µM (inactive)
Nc1ccc2ncc(Nc3ccc(F)cc3)nc2c1 | > 100 µM (inactive) | > 100 µM (inactive) | > 100 µM (inactive) | – | – | – | > 100 µM (inactive) | 85.3 µM (inactive) | –
Clc1ccc(-c2c(C3=NCCN3)nnn2-c2ccccc2)cc1 | > 100 µM (inactive) | > 100 µM (inactive) | > 100 µM (inactive) | > 100 µM (inactive) | > 100 µM (inactive) | – | > 100 µM (inactive) | > 100 µM (inactive) | 85.3 µM (inactive)
Cc1nc2c(sc(=S)n2-c2ccccc2)c2nc3ccccc3n12 | > 100 µM (inactive) | > 100 µM (inactive) | – | > 100 µM (inactive) | > 100 µM (inactive) | > 100 µM (inactive) | > 100 µM (inactive) | > 100 µM (inactive) | –
C=C1C(=O)OC2/C=C(CO)/C=C\C3OC3(C)CC(OC(=O)/C(C)=C/COC(C)=O)C12 (stereo not given) | 0.773 µM (active) | 4.08 µM (inactive) | 2.47 µM (inactive) | 1.58 µM (inactive) | 9.38 µM (inactive) | 2.74 µM (inactive) | 1.97 µM (inactive) | 4.35 µM (inactive) | 4.7 µM (inactive)
O=C(Nc1cccc2ccccc12)Oc1ccccc1C1CCCCC1 | 15.2 µM (inactive) | 23.4 µM (inactive) | – | 18.3 µM (inactive) | 16.3 µM (inactive) | 19.5 µM (inactive) | 21.2 µM (inactive) | 19.9 µM (inactive) | 20.9 µM (inactive)
CCOC(=O)C1=C(O)C(=O)c2ccoc2C1=O | – | > 100 µM (inactive) | > 100 µM (inactive) | – | > 100 µM (inactive) | – | > 100 µM (inactive) | > 100 µM (inactive) | > 100 µM (inactive)
CC#COS(=O)(=O)c1ccc(C)cc1 | 30.8 µM (inactive) | 63.5 µM (inactive) | – | 41 µM (inactive) | – | – | – | 32.7 µM (inactive) | 46.5 µM (inactive)
CC(=O)OCC1OC(n2c(=S)n(-c3ccccc3)c(=O)c3cc(Br)ccc32)C(OC(C)=O)C1OC(C)=O (stereo not given) | > 100 µM (inactive) | > 100 µM (inactive) | 71.8 µM (inactive) | 65.3 µM (inactive) | > 100 µM (inactive) | – | > 100 µM (inactive) | 99.8 µM (inactive) | > 100 µM (inactive)
COc1cc2ccc(/C(C)=N/OC(C)=O)cc2cc1OC | – | 92.9 µM (inactive) | 83.6 µM (inactive) | 95.9 µM (inactive) | 58.2 µM (inactive) | 97.7 µM (inactive) | 73.8 µM (inactive) | > 100 µM (inactive) | > 100 µM (inactive)
C=CCC1C(=O)C(C(=O)OC)N2CCc3c([nH]c4ccccc34)C12 (stereo not given) | > 100 µM (inactive) | – | – | > 100 µM (inactive) | – | – | – | > 100 µM (inactive) | > 100 µM (inactive)
O=C1C2=C(c3ccccc31)C(c1ccccc1Cl)N1C(=O)CSC1=N2 (stereo not given) | > 100 µM (inactive) | – | 64 µM (inactive) | 74.3 µM (inactive) | – | > 100 µM (inactive) | > 100 µM (inactive) | 53.8 µM (inactive) | > 100 µM (inactive)
O=c1c2ccccc2n2cnc3ccc(NCCNCCO)c1c32 | 2.59 µM (inactive) | 2.06 µM (inactive) | – | 2.3 µM (inactive) | 2.4 µM (inactive) | 1.26 µM (inactive) | – | 2.04 µM (inactive) | 1.41 µM (inactive)
CC(=O)Oc1c(-c2ccccc2)[nH]c2cc([N+](=O)[O-])c(/C(Cl)=C/c3ccccc3)cc12 | 3.71 µM (inactive) | 3.85 µM (inactive) | 4.36 µM (inactive) | 3.9 µM (inactive) | – | – | – | 2.17 µM (inactive) | 3.41 µM (inactive)
Nc1nc(N)c(CCCCc2ccccc2)c(/C=C/c2ccc([N+](=O)[O-])cc2)n1 | 2.39 µM (inactive) | 2.59 µM (inactive) | 1.84 µM (inactive) | 3.21 µM (inactive) | – | – | – | 1.45 µM (inactive) | 2.49 µM (inactive)
O=C(O)CCN(CCCCN(CCC(=O)O)CCC(=O)O)CCC(=O)O | > 100 µM (inactive) | – | > 100 µM (inactive) | > 100 µM (inactive) | > 100 µM (inactive) | – | > 100 µM (inactive) | > 100 µM (inactive) | –
O=C1OC(c2ccccc2)(c2ccccc2)CC1CN1CCOCC1 (stereo not given) | 17.1 µM (inactive) | – | – | 13.9 µM (inactive) | 14.6 µM (inactive) | 18.5 µM (inactive) | 38.2 µM (inactive) | 18 µM (inactive) | 18.2 µM (inactive)
CC1=C2CC[C@@]3(C)C(=CCC3O)C2(C)CCC1=O (stereo not given in full) | > 100 µM (inactive) | > 100 µM (inactive) | – | > 100 µM (inactive) | > 100 µM (inactive) | > 100 µM (inactive) | > 100 µM (inactive) | > 100 µM (inactive) | > 100 µM (inactive)
